# Measurements: patent US20160199367A1, “Composition for the prevention or treatment of the symptoms in the stroke comprising the inhibitor of Pin1” (RESEARCH & BUSINESS FOUNDATION SUNGKYUNKWAN UNIVERSITY, priority 2015, published 2016)
# Assays:
# [1] = test system: NICD1 protein; assay: NICD1 protein expression by western blotting in SH-SY5Y cells; type: cell-based, human; settings: 5 μM, treated in combination after overexpression of Pin1, SH-SY5Y, FIG. 1B
# Procedure: In Examples according to the present invention, a human neuroblastoma cell line, SH-SY5Y, and a mouse embryonic fibroblast cell line, an MEF cell, were used. All of the cells were cultured in DMEM (Sigma) media containing 10% fetal bovine serum (Gibco, Welgene, Hyclone) and 1% penicillin/streptomycin.
# (§1) A sample was prepared by isolating a protein from cells, and analyzed by 10% sodium dodecyl sulfate (SDS)-polyacrylamide gel electrophoresis using Tris-glycine running buffer. The gel was removed after the electrophoresis, and a transferring process was performed using a transfer buffer containing 0.025 mol/L Tris base, 0.15 mol/L glycine, and 10% (v/v) methanol at 15 V for 1.5 hours to transfer proteins onto a nitrocellulose membrane along an electrical flow. The protein-binding membrane was immersed in blocking buffer (5% non-fat milk in 20 mM Tris-HCl, pH 7.5, 137 mM NaCl, 0.2% Tween-20), and reacted at room temperature for 1 hour. […]
# First, to verify the correlation between the Notch1 signaling activity and Pin1, Pin1 protein was overexpressed with Pin1 cDNA in a human neuroblastoma cell line, SH-SY5Y, and a change in expression of a Notch1 signaling-activation molecule, NICD1 protein, was analyzed by western blotting (WB). […]
# [2] = test system: SH-SY5Y cells; assay: Apoptosis of SH-SY5Y cells under GD or OGD by trypan blue staining; type: cell-based, human; settings: OGD or GD condition for 6 hours or 12 hours, juglone 1.5 μM, PiB 5 μM, DTM 5 μM, FIGS. 5A to 5D
# Procedure: By the method as described in Example 4, SH-SY5Y cells were exposed to OGD or GD conditions to induce apoptosis, and Pin1 inhibitors including juglone were treated to verify a neuroprotective effect.
# SH-SY5Y cells were treated with Pin1 inhibitors such as 5-hydroxy-1,4-naphthoquinone (juglone), diethyl-1,3,6,8-tetrahydro-1,3,6,8-tetraoxobenzo phenanthroline-2,7-diacetate (PiB), and dipentamethylene thiuram monosulfide (DTM) at a concentration each of 1.5, 5 or 5 μM, and exposed to a GD or OGD condition for 6 hours or 12 hours to induce apoptosis, and then stained with trypan blue (0.4%) to quantify a degree of apoptosis.
# [3] = test system: NICD1 protein; assay: NICD1 expression in primary neuronal cells under GD or OGD by western blotting; type: cell-based; settings: GD or OGD condition, FIGS. 4F and 4G
# Procedure: as §1, with “hour. Afterward, the membrane was reacted overnight with primary antibodies, such as Pin1 (R&D, Epitomics), NICD1 (Upstate), MYC (Roche), FBW7 (Bioss), or Actin (Sigma), which specifically bound to each protein whose expression level was to be confirmed, at 4° C. The next day, the membrane was washed with Tris-buffered saline-T (20 mM Tris-HCL, pH 7.5, 137 mM NaCl, 0.2% Tween-20) three times each for 10 minutes.” for “hour.”
# (§2) Subsequently, primary neuronal cells were cultured under a GD or OGD condition for 12 hours or 24 hours, and then changes in expressions of caspase-3, which is one of the apoptosis signal proteins, and NICD1 protein were analyzed by western blotting.
# [4] = test system: Pin1 protein; assay: Pin1 expression in left hemisphere of MCAO mouse, administration before MCAO (western blotting); type: in vivo; settings: 3 mg/kg intraperitoneally twice before MCAO, compared to control group, FIGS. 7C and 7D
# Procedure: (§3) A sample was prepared by isolating a protein from cells, and analyzed by 10% sodium dodecyl sulfate (SDS)-polyacrylamide gel electrophoresis using Tris-glycine running buffer. The gel was removed after the electrophoresis, and a transferring process was performed using a transfer buffer containing 0.025 mol/L Tris base, 0.15 mol/L glycine, and 10% (v/v) methanol at 15 V for 1.5 hours to transfer proteins onto a nitrocellulose membrane along an electrical flow. The protein-binding membrane was immersed in blocking buffer (5% non-fat milk in 20 mM Tris-HCl, pH 7.5, 137 mM NaCl, 0.2% Tween-20), and reacted at room temperature for 1 hour. […] The next day, the membrane was washed with Tris-buffered saline-T (20 mM Tris-HCL, pH 7.5, 137 mM NaCl, 0.2% Tween-20) three times each for 10 minutes. In addition, the membrane was reacted with secondary antibodies at room temperature for 1 hour, washed again three times, and then scanned using an Odyssey® Infrared Imaging System (LI-COR Biosciences) or ECL-plus system to analyze the expression level of each protein.
# (§4) A mouse was anesthetized and an epidermis around the neck was incised. […]
# (§5) In addition, the left hemisphere of the stroke-triggered mouse was analyzed by western blotting to compare the expressions of NICD1, Pin1 and FBW7 proteins.
# [5] = test system: Pin1 protein; assay: Pin1 protein expression in primary neuronal cells in ischemic stroke-like environment (immunocytochemistry, western blotting); type: cell-based; settings: OGD or GD condition, FIGS. 4A and 4B
# Procedure: (§8) Primary neuronal cells were cultured in a glucose and serum-free medium in a 5% or 1% oxygen incubator for 9, 12 and 24 hours to create an ischemic stroke-like environment on a cellular level, thereby inducing the neuronal cell death. Afterward, an expression level of the Pin1 protein was analyzed by immunocytochemistry and western blotting.
# (§9) In addition, after the neuronal cells were cultured under the OGD condition for 12 hours, the induction of the neuronal cell death was detected by trypan blue (0.4%) staining, which is shown in FIG. 4C.
# [6] = test system: NICD1 ubiquitination; assay: NICD1 ubiquitination by co-immunoprecipitation and western blotting in Pin1-overexpressing SH-SY5Y cells; type: cell-based, human; settings: 1.5 μM, Pin1-overexpressing SH-SY5Y treated with MG132, FIG. 3A
# Source text: MYC-tagged NICD1, HA-tagged ubiquitin (Ub), and Pin1 were expressed in SH-SY5Y cell lines, and treated with MG132 to inhibit a proteolytic activity of a 26S proteasome complex. Afterward, HA and FBW7-specific antibodies were used to analyze a degree of NICD1 ubiquitination by co-immunoprecipitation (IP) and western blotting (WB).
# [7] = test system: middle cerebral artery occlusion (MCAO) animal model; assay: Stroke inhibitory effect in MCAO animal model, administration before MCAO operation; type: in vivo; settings: mouse, 3 mg/kg intraperitoneally twice before MCAO operation, compared to control group
# Source text: (§6) A mouse was anesthetized and an epidermis around the neck was incised. The left common carotid artery linked to the left hemisphere was ligated with a surgical suture, and then the external carotid artery was incised to insert a filament thereinto. The filament was pushed into the middle cerebral artery through the internal carotid artery to locally clog the middle cerebral artery, thereby interrupting blood supply to construct an ischemic animal model. After cerebral infarction was induced in the animal model for 1 hour, the filament was removed from the blood vessel (artery), and then the blood was supplied again to the blood vessel, followed by suturing.
# Ischemic stroke was trigged in the mouse by intraperitoneally administering the juglone (3 mg/kg) twice and conducting an MCAO operation, and then the resultant mouse was compared with a control group mouse to which the juglone was not administered.
# [8] = test system: NICD1 protein; assay: NICD1 expression in MCAO mouse brain, administration after stroke (western blotting); type: in vivo; settings: 3 mg/kg once by intravenous injection after MCAO, compared to control group, FIGS. 8C and 8D
# Procedure: as §3
# (§7) A mouse was anesthetized and an epidermis around the neck was incised. The left common carotid artery linked to the left hemisphere was ligated with a surgical suture, and then the external carotid artery was incised to insert a filament thereinto. […]
# [9] = test system: FBW7 protein; assay: FBW7 expression in left hemisphere of MCAO mouse, administration before MCAO (western blotting); type: in vivo; settings: 3 mg/kg intraperitoneally twice before MCAO, compared to control group, FIGS. 7C and 7D
# Procedure: as §3, §4, §5
# [10] = test system: NICD1 protein; assay: NICD1 expression in left hemisphere of MCAO mouse, administration before MCAO (western blotting); type: in vivo; settings: 3 mg/kg intraperitoneally twice before MCAO, compared to control group, FIGS. 7C and 7D
# Procedure: as §3, §4, §5
# [11] = test system: cleaved caspase-3 (CLCas-3) protein; assay: Cleaved caspase-3 expression in primary neuronal cells under GD or OGD by western blotting; type: cell-based; settings: GD or OGD condition for 12 hours or 24 hours, FIGS. 4D and 4E
# Procedure: A sample was prepared by isolating a protein from cells, and analyzed by 10% sodium dodecyl sulfate (SDS)-polyacrylamide gel electrophoresis using Tris-glycine running buffer. The gel was removed after the electrophoresis, and a transferring process was performed using a transfer buffer containing 0.025 mol/L Tris base, 0.15 mol/L glycine, and 10% (v/v) methanol at 15 V for 1.5 hours to transfer proteins onto a nitrocellulose membrane along an electrical flow. The protein-binding membrane was immersed in blocking buffer (5% non-fat milk in 20 mM Tris-HCl, pH 7.5, 137 mM NaCl, 0.2% Tween-20), and reacted at room temperature for 1 hour. Afterward, the membrane was reacted overnight with primary antibodies, such as Pin1 (R&D, Epitomics), NICD1 (Upstate), MYC (Roche), FBW7 (Bioss), or Actin (Sigma), which specifically bound to each protein whose expression level was to be confirmed, at 4° C. The next day, the membrane was washed with Tris-buffered saline-T (20 mM Tris-HCL, pH 7.5, 137 mM NaCl, 0.2% Tween-20) three times each for 10 minutes. […]
# as §2
# [12] = test system: middle cerebral artery occlusion (MCAO) animal model; assay: Neuroprotective effect in MCAO animal model, administration after triggering of ischemic stroke; type: in vivo; settings: mouse, 3 mg/kg once by intravenous injection after MCAO operation, compared to control group
# Source text: as §6
# An MCAO operation was conducted on a mouse as described in Example 1-4 to trigger ischemic stroke, and then juglone (3 mg/kg) was administered once to the mouse by intravenous injection. Afterward, the resultant mouse was compared with the control group mouse to which the juglone was not administered.
# [13] = test system: primary neuronal cells; assay: Neuronal cell death under OGD condition by trypan blue staining; settings: OGD condition for 12 hours, FIG. 4C
# Procedure: as §8, §9
# [14] = test system: Pin1 protein; assay: Pin1 expression in MCAO mouse brain, administration after stroke (western blotting); type: in vivo; settings: 3 mg/kg once by intravenous injection after MCAO, compared to control group, FIGS. 8C and 8D
# Procedure: as §3, §7
# [15] = test system: FBW7 protein; assay: FBW7 expression in MCAO mouse brain, administration after stroke (western blotting); type: in vivo; settings: 3 mg/kg once by intravenous injection after MCAO, compared to control group, FIGS. 8C and 8D
# Procedure: as §3, §7
structure (smiles),measurement,setting,value
"C[C@H](NC(=O)Cc1cc(F)cc(F)c1)C(=O)N[C@H](C(=O)OC(C)(C)C)c1ccccc1 [DAPT, N-[N-(3,5-difluorophenacetyl)-1-alanyl]-S-phenylglycine t-butyl ester]",expression of NICD1 protein,[1],increase in NICD1 was not found
"S=C(SC(=S)N1CCCCC1)N1CCCCC1 [DTM, dipentamethylene thiuram monosulfide]",apoptosis (trypan blue),[2],decreased to a greater or less extent
"CCOC(=O)CN1C(=O)c2ccc3c4c(ccc(c24)C1=O)C(=O)N(CC(=O)OCC)C3=O [PiB, diethyl-1,3,6,8-tetrahydro-1,3,6,8-tetraoxobenzo phenanthroline-2,7-diacetate]",apoptosis (trypan blue),[2],decreased to a greater or less extent
"O=C1C=CC(=O)c2c(O)cccc21 [juglone, 5-hydroxy-1,4-naphthoquinone]",expression of NICD1 protein,[3],decreased
same,expression of Pin1 protein,[4],decreased
same,Pin1 expression,[5],reduced
same,NICD1 ubiquitination,[6],increased again
same,generation of ischemia,[7]; FIG. 7A,decreased
same,neurological deficits,[7]; FIG. 7B,decreased
same,expression of NICD1 protein,[8],decreased
same,expression of FBW7 protein,[9],increased
same,expression of NICD1 protein,[10],decreased
same,expression of cleaved caspase-3 (CLCas-3) protein,[11],decreased
same,generation of ischemia,[12]; FIG. 8A,decreased
same,neurological deficits,[12]; FIG. 8B,decreased
same,"apoptosis (neuronal cell death, trypan blue)",[13],reduced
same,expression of Pin1 protein,[14],decreased
same,expression of FBW7 protein,[15],increased
same,apoptosis (trypan blue),[2],decreased to a greater or less extent
